The values that follow come from patent US20150258047A1, “Therapeutic Compounds” (AKTHELIA PHARMACEUTICALS, priority 2011, published 2015).

Several values for one entry are separate records, joined by “and”; a condition that tells them apart may be missing. Identical values can stand only once. Like-named read-outs stand apart in the source and are kept apart here. Where no end group is shown, it is not given here.

The subject of series [1] is CAP-18. Description: CAP-18 immunoreactivity in epithelial lining of organs (immunostaining, ACIA score). To be noted: for CAP-18 peptide in the mucosal epithelia: Shigella infected rabbits, lung, trachea, rectum and colon; for CAP-18 (protein) expression: oral, shigellosis infected rabbit, rectum, distal colon, kidney, lung and trachea relative to untreated infected rabbits (FIG. 1A); for CAP-18 in the organs of healthy rabbits: oral (FIG. 1B). The class given is in vivo, rabbit. The text has this:
FIG. 1. CAP-18 immunoreactivity in the epithelial lining of different organs in (A) Healthy rabbits, Shigella-infected rabbits and infected rabbits treated with NaB, TBG or PBA (B) healthy rabbits treated with NaB, TBG or PBA. Quantification of immunoreactive area relative to the total cell area of the tissue section was done by a computerized image analysis technique, and the results are expressed as ACIA score, i.e., the total positively stained area×total mean intensity (1-256 levels/per pixel) of the positive area divided by total cell area. One-way ANOVA was used in comparing data between healthy and infected/infected treated rabbits, between infected and infected treated rabbits, and between healthy and healthy-treated rabbits. The differences were significant when P<0.05; ‡ significant when comparing with healthy, * significant when comparing with infected.

For series [2], the system named is Shigella. Briefly: Anti-Shigella activity in stool extracts of treated rabbits. The class given is in vivo, rabbit. The following applies: compared to infected or healthy rabbits. The text has this: (§1) Anti-Shigella activity in stool extracts from PBA, TBG and NaB-treated rabbits was higher compared to infected or healthy rabbits.
Series [3] has as its system Shigella. Briefly: Shigellosis rabbit model, clinical illness and recovery. The class given is in vivo. To be noted: for clinical illness: Shigella infected rabbits. As for the experimental part:
as §1
(§2) In a shigellosis model a 0.14 mmol/dose lead to 2 out of 3 rabbits recovering from shigellosis. Assuming a blood volume of 121 ml in the 2 kg rabbit the maximum concentration of NaB in the blood after IV administration would have been 1.2 mM.

Series [4] concerns CAP-18. Briefly: CAP-18 gene expression in tissue specimens of Shigella-infected rabbits. The class given is in vivo, rabbit. Further details: scale not given here. To be noted: treated Shigella-infected rabbits, n = 5, median.
For the next series, the system named is Shigella flexneri strain. The following applies: cited from earlier work.
A short description of series [5]: Butyrate concentration in rabbit serum after oral NaB. The class given is in vivo. The following applies: oral dosing of 15.6 mg to each rabbit, read-out: maximum concentration of butyrate in the blood (Cmax). As for the experimental part:
FIG. 2. Butyrate concentration in healthy rabbit serum after oral treatment with NaB. Serum was collected from healthy rabbits at different time points after oral treatment with a single 0.14 mmol dose of NaB (15.6 mg). Four analyses (duplicate analyses of two samples) of serum from a NaB treated rabbit are shown, where the concentrations are calculated from two separate standard curves (one for each duplicate). NaB: Sodium butyrate.
The maximum concentration of butyrate in the blood is about 8 μM (Cmax) after oral dosing of 15.6 mg of butyrate to each rabbit.

The nature of series [6]: Maximum concentration of NaB in blood after IV administration (assumed blood volume). The class given is in vivo. The following applies: 0.14 mmol/dose; assuming blood volume of 121 ml in the 2 kg rabbit. On the procedure: as §2
The test system of series [7] is Shigella dysenteriae type 1 strain. To be noted: cited from earlier work.
For series [8], the system named is E. coli strain E2348/69 (EPEC). The class given is cell-based. The following applies: strain E2348/69 (EPEC, 0.90 μM). On the procedure:
To assess bactericidal activity of synthetic CAP-18 and PBA, an in vitro killing experiment was carried out with E. coli strain E2348/69 (EPEC). […] Note that dosing in Phase II TB study is 1 g daily with 5000 IU vitamin D.

Series [9] has as its system Pseudomonas aeruginosa (strain PA01). Description: Visual inspection of VA10 cell cultures infected with Pseudomonas aeruginosa. The class given is cell-based. To be noted: VA10 cells induced 48 h with 20 nM vitamin D, 4 mM PBA or both; 24 hrs after infection; control wells dense culture of bacteria. On the procedure: FIG. 7. Visual assessment of survival of VA10 cells in the presence of low infectivity Pseudomonas aeruginosa 0-1 bacteria (PAO1). After cultivating for 6 days the cells were stimulated for 48 h with 4-PBA, VitD, and 4-PBA+VitD. Subsequently the cells were stimulated for 24 h with 10 MOI PAO1 and inspected under the microscope.
VA10 cells were grown in BEGM medium (Bronchial Epithelial Growth Medium). VA10 cells were induced by adding PBA and/or vitamin D to the medium. Untreated control was included. After 48 h induction the culture was infected with low dose of Pseudomonas aeruginosa (strain PA01) along with freeze-thaw-treated bacteria. After 24 hrs of cultivation the culture wells were visually inspected. Dense culture of bacteria was found in control wells, but the wells of cells that had been induced with 20 nM vitamin D, 4 mM PBA or combination of 20 nM vitamin D and 4 mM PBA contained clear medium (FIG. 7).

The conditions of series [10]: after the administration of a 5 g dose; cited from earlier work.
A further series concerns DEFB-1. Description: DEFB-1 mRNA expression in VA10 cells by rtPCR. The class given is cell-based, human. To be noted: first 4-PBA, subsequently low-dose inactivated Pseudomonas bacteria. As for the experimental part:
FIG. 9. DEFB-1 expression in VA10 cells after 48 h stimulation with 4 mM 4-PBA, 20 nM VitD, and […]+20 nM VitD and subsequent 24 h stimulation with low infectivity freeze-thawed PAO1 suspension (PAO1 has been frozen in DMEM at −25° C. for a week. The majority of bacteria have been inactivated.)
In addition to the visual inspection the degree of induction of CAMP mRNA, that codes for LL-37, and DEFB-1, that codes for […], was determined by rtPCR.

[11] abbreviates: LP (lamina propria) distal colon.
The mark [12] stands for this setting: SE (surface epithelium) distal colon.

In the case of `CC[C@H](C)[C@H](NC(=O)[C@H](CCCCN)NC(=O)[C@H](CCC(=O)O)NC(=O)[C@H](CCCCN)NC(=O)[C@H](CO)NC(=O)[C@H](CCCCN)NC(=O)[C@H](CCCNC(=N)N)NC(=O)[C@H](Cc1ccccc1)NC(=O)[C@H](Cc1ccccc1)NC(=O)[C@H](CC(=O)O)NC(=O)CNC(=O)[C@H](CC(C)C)NC(=O)[C@@H](N)CC(C)C)C(=O)NCC(=O)N[C@@H](CCCCN)C(=O)N[C@@H](CCC(=O)O)C(=O)N[C@@H](Cc1ccccc1)C(=O)N[C@@H](CCCCN)C(=O)N[C@@H](CCCNC(=N)N)C(=O)N[C@H](C(=O)N[C@H](C(=O)N[C@@H](CCC(N)=O)C(=O)N[C@@H](CCCNC(=N)N)C(=O)N[C@H](C(=O)N[C@@H](CCCCN)C(=O)N[C@@H](CC(=O)O)C(=O)N[C@@H](Cc1ccccc1)C(=O)N[C@@H](CC(C)C)C(=O)N[C@@H](CCCNC(=N)N)C(=O)N[C@@H](CC(N)=O)C(=O)N[C@@H](CC(C)C)C(=O)N[C@H](C(=O)N1CCC[C@H]1C(=O)N[C@@H](CCCNC(=N)N)C(=O)N[C@H](C(=O)N[C@@H](CCC(=O)O)C(=O)N[C@@H](CO)C(=O)O)[C@@H](C)O)C(C)C)[C@@H](C)CC)C(C)C)[C@@H](C)CC` [LL-37], the Zone diameter was determined as 0 mm in the series on Haemophilus influenzae (50 uM); 7.75 mm with Haemophilus influenzae (100 uM); 13.3 mm in the series with Haemophilus influenzae (300 uM); 5.4 mm in the series with Moraxella catarrhalis (10 uM); 6.3 mm with Moraxella catarrhalis (25 uM); 7.45 mm in the series on Moraxella catarrhalis (50 uM). In the series with Moraxella catarrhalis (100 uM), the Zone diameter is recorded as 8.9 mm.

With `CCCC(=O)OCC(COC(=O)CCC)OC(=O)CCC` [TBG, glyceryl tributyrate], in the series with CAP-18 [1], the “CAP-18 peptide in the mucosal epithelia” value is “up-regulation”. Also, the “CAP-18 peptide level in the kidney” value in the series with CAP-18 [1] (non-infected rabbits (FIG. 1B)) is “increased levels”. Moreover, the “CAP-18 (protein) expression” value in the series with CAP-18 [1] is on record as “systemic stimulation”. Also, the “Anti-Shigella activity in stool extracts” value with Shigella [2] is “higher”. In the series with Shigella [3], the clinical illness entry is on record as “reduced clinical illness”. Further, the CAP-18 gene expression with CAP-18 [4] (Kidney) was 2.7; with CAP-18 [4] (setting [11]) it was 0.43; in the series on CAP-18 [4] (LP (lamina propria) rectum), 0.07; in the series on CAP-18 [4] (Lungs), 6.4; in the series on CAP-18 [4] (setting [12]), 2.8; in the series on CAP-18 [4] (SE (surface epithelium) rectum) it was 0.4. Moreover, the CAP-18 gene expression in the series on CAP-18 [4] (Trachea) is listed as 1.11; in the series on CAP-18 [4] (U. tract), 0.25.

On to `CCCC(=O)O` [NaB, sodium butyrate], for which the “CAP-18 peptide in the mucosal epithelia” value in the series on CAP-18 [1] is “up-regulation”. Besides, the CAP-18 level with CAP-18 [1] (colonic SE, intravenous injection into infected rabbits) came out at 5.6±1.8 ACIA score; with CAP-18 [1] (colonic SE, orally treated infected rabbits), 7.4±0.5 ACIA score; in the series on CAP-18 [1] (rectal SE, intravenous injection into infected rabbits), 6.5±1.8 ACIA score; with CAP-18 [1] (rectal SE, orally treated infected rabbits), 8.13±1 ACIA score. Moreover, the “CAP-18 in the organs of healthy rabbits” value with CAP-18 [1] is on record as “do not cause increase”. For the same molecule, in the series on CAP-18 [1], the “CAP-18 (protein) expression” value was “systemic stimulation”. Besides, the “Anti-Shigella activity in stool extracts” value in the series on Shigella [2] is listed as “higher”. The “rabbits recovering from shigellosis” value with Shigella [3] (0.14 mmol/dose, intravenous) is reported as 2 out of 3. The clinical illness result in the series with Shigella [3] is listed as “reduced clinical illness”. Also, the “concentration for maximum killing” value in the series on Shigella flexneri strain is 400 mM and 44 mg/ml; in [7], 400 mM and 44 mg/ml. Further, in series [5], the Cmax is ~8 µM. Moreover, the “maximum concentration in the blood after IV administration” value in [6] was 1.2 mM. For the same molecule, the CAP-18 gene expression turned out to be 17.4 with CAP-18 [4] (Kidney); 0.55 with CAP-18 [4] (setting [11]); 0.1 in the series with CAP-18 [4] (LP (lamina propria) rectum); 12.6 in the series on CAP-18 [4] (Lungs); 5.0 in the series on CAP-18 [4] (setting [12]); 0.3 with CAP-18 [4] (SE (surface epithelium) rectum). For the same molecule, the figures for the CAP-18 gene expression with CAP-18 [4] (Trachea) and in the series on CAP-18 [4] (U. tract) were 0.71 and 0.19, respectively.

On to “GLRKRLRKFRNKIKEKLKKIGQKIQGLLPKLAPRTDY [CAP-18]”, for which the “killing of EPEC” value in series [8] is recorded as 97-99%.

As to vitamin D, the “visual inspection of culture wells” value in series [9] is listed as “clear medium”.

With `O=C(O)CCCc1ccccc1` [PBA, sodium 4-phenylbutyrate, reference compound], the “CAP-18 peptide in the mucosal epithelia” value in the series on CAP-18 [1] is given as “up-regulation”. Besides, in the series with CAP-18 [1], the “CAP-18 in the organs of healthy rabbits” value is listed as “do not cause increase”. In the series on CAP-18 [1], the “CAP-18 (protein) expression” value was “systemic stimulation”. Further, in [9], the “visual inspection of culture wells” value is “clear medium”. In addition, in the series with Shigella [2], the “Anti-Shigella activity in stool extracts” value was “higher”. The clinical illness entry in the series with Shigella [3] is “reduced clinical illness”. The Cmax in [10] is 1200 µM. Also, in the series on DEFB-1, the DEFB-1 expression entry was “up to six-fold”. The CAP-18 gene expression with CAP-18 [4] (Kidney) is on record as 3.9; in the series on CAP-18 [4] (setting [11]), 0.53; in the series with CAP-18 [4] (LP (lamina propria) rectum), 0.41; with CAP-18 [4] (Lungs), 5.3; with CAP-18 [4] (setting [12]), 2.4; in the series with CAP-18 [4] (SE (surface epithelium) rectum) it was 0.18. Also, the CAP-18 gene expression is reported as 1.1 in the series on CAP-18 [4] (Trachea) and 0.13 in the series with CAP-18 [4] (U. tract).
